Results: patent publication US20090264388A1, “Compounds and Methods of Treating Disorders Associated With Activation of Metachromatic Cells” (Valorisation Recherche HSCM, Limited Partnership, priority 2006, published 2009)
“Also recorded” adds a separate entry of the source. Structures can show the parent of a compound that is named as a salt. Where two headings read alike, the source gives them in different places.

Assays:
RBL-2H3 cells [1] = experiment: Antigen (DNP-BSA)-induced β-hexosaminidase release (degranulation) in IgE-sensitized RBL-2H3 cells; type: cell-based, rat; conditions: for blockade of IgE-dependent activation and degranulation of metachromatic cells, agent alone: antigen-induced maximal degranulation (FIG. 21-28); for effect on antigenic degranulation / β-hexosaminidase release: DNP-BSA 5 ng/ml and 40 ng/ml, antagonist concentration not stated
Description: The rat basophilic cell line RBL-2H3 is an art recognized model for studying the activation of metachromatic cells through FcεRI (Oliver et al., “Signal transduction and cellular response in RBL-2H3 mast cells,” Prog. Allergy 42:185-245, 1988).
(§1) The below experiments used the rat basophilic cells RBL-2H3 commercially available from the American Type Culture Collection (ATCC; Manassas, Va.) under accession number CRL-2256. RBL-2H3 cells were passively sensitized with mouse IgE anti-dinitrophenyl conjugated to bovine serum albumin (DNP-BSA) monoclonal antibody for 22 hours, and then stimulated with DNP-BSA (antigen) to induce cell degranulation (FIG. 1).

neurokinin-1 receptor [2] = target: neurokinin-1 receptor (Homo sapiens, UniProt P25103); conditions: cited from earlier work
Chain of neurokinin-1 receptor (Homo sapiens, UniProt P25103) (P25103 whole entry): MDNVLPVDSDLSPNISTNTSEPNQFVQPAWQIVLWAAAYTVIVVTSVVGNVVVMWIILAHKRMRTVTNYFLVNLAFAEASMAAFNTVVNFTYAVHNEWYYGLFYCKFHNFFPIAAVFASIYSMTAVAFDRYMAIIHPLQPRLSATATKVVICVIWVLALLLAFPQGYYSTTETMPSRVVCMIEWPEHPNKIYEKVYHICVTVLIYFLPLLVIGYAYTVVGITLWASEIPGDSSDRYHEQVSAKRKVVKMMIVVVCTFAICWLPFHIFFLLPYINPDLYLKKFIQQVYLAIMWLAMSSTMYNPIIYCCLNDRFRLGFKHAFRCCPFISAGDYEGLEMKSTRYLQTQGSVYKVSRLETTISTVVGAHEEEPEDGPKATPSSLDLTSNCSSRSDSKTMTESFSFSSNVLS

RBL-2H3 cells [3] = experiment: Cell viability by trypan blue exclusion test in RBL-2H3 cells; type: cell-based, rat; conditions: IgE-sensitized RBL-2H3 cells stimulated with DNP-BSA (FIG. 3)
Description: as §1, with “1). To address the issue of an autocrine tachykinergic regulation of metachromatic cell degranulation in response to antigenic activation, IgE-sensitized RBL-2H3 cells were pre-treated with a selective NK-1 receptor antagonist prior to antigen stimulation.” for “1).”

RBL-2H3 cells [4] = experiment: Calcium ionophore A23187-induced β-hexosaminidase release in RBL-2H3 cells; type: cell-based, rat
Description: RBL-2H3 cells were stimulated with the calcium ionophore A23187 (SigmaAldrich #C7522) in a concentration-dependent manner to induce metachromatic cell degranulation FIG. 10). […] The maximal inhibition is obtained at the concentration of 10 μM of L-703,606 (FIG. 11).

RBL-2H3 cells [5] = experiment: Histamine immunoreactivity (intracellular histamine pools) in IgE-sensitized RBL-2H3 cells stimulated with DNP-BSA; type: cell-based, rat; conditions: pretreatment 10 μM; DNP-BSA 40 ng/ml
Description: Data analysis using the macro built under the Image-Pro Plus platform enabled the representation of the frequency distribution of the maximal intensity for histamine immunoreactivity into RBL-2H3 cells. We arbitrarily divided basophils into six subgroups according to the range of maximal fluorescence intensity detected into the cells, e.g., 300 to 499 IAU (intensity arbitrary unit) or 900-1100 IAU. […] Therefore, frequency distribution analyses confirmed the β-hexosaminidase data by showing that blocking NK-1 receptors inhibits FcεRI clustering-induced metachromatic cell degranulation.

RBL-2H3 cells [6] = experiment: Intracellular calcium changes (Fluo-3 AM, epifluorescence microscopy) in RBL-2H3 cells; type: cell-based, rat; conditions: Fluo-3 AM loaded cells (FIG. 12)
NK-1 receptors = target: T1, NK-1 receptors (Homo sapiens, UniProt P25103); conditions: CHO cells expressing NK-1 receptors, cited from earlier work
T1 construct: expressed in transfected cells; host or cells: CHO cells
T1 sequence (P25103 whole entry): as above

neurokinin-1 receptor [7] = target: T2, neurokinin-1 receptor (Cavia porcellus, UniProt P30547); conditions: guinea pig ileum; cited from earlier work
T2 construct: pA2: 7.16 (guinea pig ileum); from tissue; host or cells: guinea pig ileum
T2 sequence (P30547 whole entry): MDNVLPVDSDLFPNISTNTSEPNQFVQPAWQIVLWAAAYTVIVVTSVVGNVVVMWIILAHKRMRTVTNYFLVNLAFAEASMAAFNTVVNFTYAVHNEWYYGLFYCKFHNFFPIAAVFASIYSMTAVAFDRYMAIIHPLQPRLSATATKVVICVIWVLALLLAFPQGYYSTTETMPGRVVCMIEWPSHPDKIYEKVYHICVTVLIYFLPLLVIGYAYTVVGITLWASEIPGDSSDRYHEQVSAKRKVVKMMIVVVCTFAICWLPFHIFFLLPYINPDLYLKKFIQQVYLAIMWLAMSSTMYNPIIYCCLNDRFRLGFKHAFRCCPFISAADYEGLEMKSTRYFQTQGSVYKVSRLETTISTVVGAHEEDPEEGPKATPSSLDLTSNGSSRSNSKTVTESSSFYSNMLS

neurokinin-1 receptor [8] = target: T3, neurokinin-1 receptor (Rattus norvegicus, UniProt P14600); conditions: rat brain; cited from earlier work
T3 construct: from tissue; host or cells: rat brain
T3 sequence (P14600 whole entry): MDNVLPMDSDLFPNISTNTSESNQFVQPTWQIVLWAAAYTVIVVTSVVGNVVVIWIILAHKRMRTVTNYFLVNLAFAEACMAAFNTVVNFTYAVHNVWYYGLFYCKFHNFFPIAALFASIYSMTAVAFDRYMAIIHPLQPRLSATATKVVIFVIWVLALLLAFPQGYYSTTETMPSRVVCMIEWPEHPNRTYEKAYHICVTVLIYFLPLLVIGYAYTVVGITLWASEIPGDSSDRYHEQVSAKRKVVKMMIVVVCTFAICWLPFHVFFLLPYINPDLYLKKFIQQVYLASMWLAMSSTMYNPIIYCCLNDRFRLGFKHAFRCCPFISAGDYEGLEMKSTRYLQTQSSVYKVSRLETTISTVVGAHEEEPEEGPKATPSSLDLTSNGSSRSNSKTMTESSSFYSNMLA

[9] = antagonist 10 μM, DNP-BSA 5 ng/ml
[10] = antagonist 10 μM, DNP-BSA 40 ng/ml

Cl.O=c1cc(N2CCOCC2)oc2c(-c3ccccc3)cccc12 [LY-294,002]
blockade of IgE-dependent activation and degranulation of metachromatic cells, agent alone (RBL-2H3 cells [1]): potent blocker

[D-Arg^1, D-Phe^5, D- Trp^7,9, Leu^11] substance P [Antagonist D]
effect on antigenic degranulation / β-hexosaminidase release (RBL-2H3 cells [1]): did not alter; also recorded: lack of inhibition | Affinity (selectivity in words) (neurokinin-1 receptor [2]): Non-selective

Ic1ccccc1CNC1C2CCN(CC2)C1C(c1ccccc1)c1ccccc1.O=C(O)C(=O)O [L-703,606, cis-2-(Diphenylmethel)-N-([2-iodophenyl]methyl)-1-azabicyclo (2.2.2) octan-3-amine]
effect on antigen-induced maximal degranulation (RBL-2H3 cells [1]; L-703,606 5 μM alone, antigen 40 ng/ml): weak effect | effect on inhibition by Tacrolimus of antigen-induced maximal cell degranulation (RBL-2H3 cells [1]; L-703,606 10 μM, Tacrolimus 0.01 μM): potentiates | effect on inhibition by cyclosporin A of antigen-induced maximal cell degranulation (RBL-2H3 cells [1]; L-703,606 10 μM, cyclosporin A 0.1 μM): potentiates | effect on inhibition by FTY720 of antigen-induced maximal cell degranulation (RBL-2H3 cells [1]; L-703,606 1, 5 and 10 μM, FTY720 5 μM): potentiates | effect on inhibition by BAY 61-3606 of antigen-induced maximal cell degranulation (RBL-2H3 cells [1]; L-703,606 5 and 10 μM, BAY 61-3606 100 and 250 nM): potentiates | effect on inhibition by LY-294,002 of antigen-induced maximal cell degranulation (RBL-2H3 cells [1]; L-703,606 5 and 10 μM, LY-294,002 1 and 10 μM): potentiates | effect on inhibition by PD98059 of antigen-induced maximal cell degranulation (RBL-2H3 cells [1]; L-703,606 5 and 10 μM, PD98059 5, 10 and 25 μM): potentiates | effect on inhibition by PP1 of antigen-induced maximal cell degranulation (RBL-2H3 cells [1]; L-703,606 5 and 10 μM, PP1 1 and 5 μM): potentiates | effect on inhibition by SB202190 of antigen-induced maximal cell degranulation (RBL-2H3 cells [1]; L-703,606 5 and 10 μM, SB202190 10 and 25 μM): potentiates | effect on antigen-induced 50% of cell degranulation (RBL-2H3 cells [1]; [9]): completely abolished | reduction of maximal antigenic degranulation response (RBL-2H3 cells [1]; [10]): ~50% | inhibition of antigen-induced β-hexosaminidase release (RBL-2H3 cells [1]; antagonist 1 to 10 μM, DNP-BSA 5 ng/ml or 40 ng/ml): concentration-dependent inhibition | effect on basal release of β-hexosaminidase (RBL-2H3 cells [1]; no antigen, data not shown): did not change | most efficient inhibitory concentration for β-hexosaminidase release (RBL-2H3 cells [1]; range tested 1 to 10 μM): 10 µM | cell viability (trypan blue exclusion) (RBL-2H3 cells [3]): did not alter cell viability | cell viability (trypan blue exclusion) (RBL-2H3 cells [3]; listed as L-703,606 oxalate salt): not attributable to cell death | concentration giving maximal inhibition of calcium ionophore-induced degranulation (RBL-2H3 cells [4]; calcium ionophore A23187): 10 µM | inhibition of calcium ionophore-induced activation and degranulation (RBL-2H3 cells [4]; calcium ionophore A23187 (FIG. 11)): inhibit, in a concentration-dependent manner | depletion of histamine intracellular pools (RBL-2H3 cells [5]): mostly abolished | Kd (neurokinin-1 receptor [2]; 35% sites): 1.5 nM | Kd (neurokinin-1 receptor [2]; 65% sites): 0.04 nM | effect on calcium ionophore-induced calcium signals (RBL-2H3 cells [6]): unlikely to be attributable to inhibition of calcium ionophore-induced extracellular calcium signals | IC50 (NK-1 receptors): 2 nM

COc1cccc(-c2cc(=O)c3ccccc3o2)c1N [PD98059]
blockade of IgE-dependent activation and degranulation of metachromatic cells, agent alone (RBL-2H3 cells [1]): potent blocker

C=CC[C@@H]1/C=C(\C)C[C@H](C)C[C@H](OC)[C@H]2O[C@@](O)(C(=O)C(=O)N3CCCC[C@H]3C(=O)O[C@H](/C(C)=C/[C@@H]3CC[C@@H](O)[C@H](OC)C3)[C@H](C)[C@@H](O)CC1=O)[C@H](C)C[C@@H]2OC [Tacrolimus]
blockade of IgE-dependent activation and degranulation of metachromatic cells, agent alone (RBL-2H3 cells [1]): potent blocker

FC(F)(F)c1cc(CO[C@@H]2CCCN[C@@H]2c2ccccc2)cc(C(F)(F)F)c1 [L-733,060, ((2S,3S)-3-[[3,5-bis (Trifluoromethyl)phenyl]methoxy]-2-phenylpiperidine hydrochloride]
effect on antigen-induced 50% of cell degranulation (RBL-2H3 cells [1]; [9]): completely abolished | reduction of maximal antigenic degranulation response (RBL-2H3 cells [1]; [10]): ~55% | IC50 (NK-1 receptors; read-out: IC50): 1 nM

C[C@@H]1C[C@H]2[C@@H]3CCC4=CC(=O)C=C[C@]4(C)[C@@]3(F)[C@@H](O)C[C@]2(C)[C@@]1(O)C(=O)CO [dexamethasone]
reduction of maximal degranulation (RBL-2H3 cells [1]; dexamethasone 10^−8 M alone, antigen 40 ng/ml): 50%

COc1cc(C(=O)N2CC[C@](CCN3CCC(C(N)=O)(c4ccccc4)CC3)(c3ccc(Cl)c(Cl)c3)C2)cc(OC)c1OC [MDL 105,212]
effect on antigenic degranulation / β-hexosaminidase release (RBL-2H3 cells [1]): lack of inhibition | effect on cell degranulation induced by 40 ng/ml DNP-BSA (RBL-2H3 cells [1]; antagonist 1 μM (but not 10 μM), DNP-BSA 40 ng/ml): significantly increased | effect on antigen concentration leading to 50% of maximal degranulation (RBL-2H3 cells [1]; antagonist at both 1 μM and 10 μM, DNP-BSA 5 ng/ml): had no effect

COc1ccccc1CC(=N)N1C[C@@H]2C(=O)CCC(c3ccccc3)(c3ccccc3)[C@@H]2C1 [RP 67580, (3aR,7aR)-Octahydro-2-[1-imino-2-(2-methoxyphenyl)ethyl]-7,7-diphenyl-4H-isoindol]
decrease of degranulation induced by 5 ng/ml DNP-BSA (RBL-2H3 cells [1]; [9]): ~50% | effect on maximal antigenic degranulation (RBL-2H3 cells [1]; [10]): no significant effect | pA2 (neurokinin-1 receptor [7]): 7.16 | IC50 (neurokinin-1 receptor [8]): 10 nM

Oc1ccc(-c2nc(-c3ccncc3)c(-c3ccc(F)cc3)[nH]2)cc1 [SB202190]
blockade of IgE-dependent activation and degranulation of metachromatic cells, agent alone (RBL-2H3 cells [1]): potent blocker

COc1ccc(-c2cc3nccn3c(Nc3ncccc3C(N)=O)n2)cc1OC [BAY 61-3606]
blockade of IgE-dependent activation and degranulation of metachromatic cells, agent alone (RBL-2H3 cells [1]): potent blocker

CCCCCCCCc1ccc(CCC(N)(CO)CO)cc1.Cl [FTY720]
blockade of IgE-dependent activation and degranulation of metachromatic cells, agent alone (RBL-2H3 cells [1]): potent blocker
